Measurements as given in US6716833B2, “Acetylenic α-amino acid-based sulfonamide hydroxamic acid tace inhibitors” (priority 1999, dated 2004).

What follows are compounds tested against TNF-α converting enzyme (TACE) (Homo sapiens, UniProt P78536) (assay: TACE inhibition (fluorescent peptidyl substrate)). Conditions: IC 50 nM (In Vitro Inhibition of TACE), Table 15.
Assay type: biochemical

TNF-α converting enzyme (TACE), sequence (P78536 215-824, species assumed): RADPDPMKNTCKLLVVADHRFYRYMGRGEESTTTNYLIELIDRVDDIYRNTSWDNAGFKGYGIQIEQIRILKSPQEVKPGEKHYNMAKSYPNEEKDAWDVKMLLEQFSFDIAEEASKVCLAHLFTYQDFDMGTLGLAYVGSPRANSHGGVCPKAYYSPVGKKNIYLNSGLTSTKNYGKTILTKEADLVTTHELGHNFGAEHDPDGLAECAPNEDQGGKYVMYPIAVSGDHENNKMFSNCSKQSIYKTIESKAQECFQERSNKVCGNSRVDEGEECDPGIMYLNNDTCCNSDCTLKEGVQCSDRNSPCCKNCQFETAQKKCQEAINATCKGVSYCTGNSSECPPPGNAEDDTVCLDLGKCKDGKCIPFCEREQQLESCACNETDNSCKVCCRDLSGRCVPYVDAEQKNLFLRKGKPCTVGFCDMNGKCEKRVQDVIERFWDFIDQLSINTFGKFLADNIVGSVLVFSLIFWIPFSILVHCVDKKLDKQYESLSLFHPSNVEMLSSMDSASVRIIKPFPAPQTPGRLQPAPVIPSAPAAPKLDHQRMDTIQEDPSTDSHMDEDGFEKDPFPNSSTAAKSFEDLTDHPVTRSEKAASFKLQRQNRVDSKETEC

Row | IC50 | SMILES
1 | 3.58 nM | CC#CCOc1ccc(S(=O)(=O)N[C@H](CCCNC(=O)c2ccccc2)C(=O)NO)cc1 [Example 330, N-[(4R)-4-({[4-(But-2-ynyloxy)phenyl]sulfonyl}amino)-5-(hydroxyamino)-5-oxopentyl]benzamide]
2 | 5.32 nM | CC#CCOc1ccc(S(=O)(=O)N[C@H](CCCNC(=O)c2ccc(Br)cc2)C(=O)NO)cc1 [Example 331, 4-Bromo-N-[(4R)-4-({[4-(but-2-ynyloxy)phenyl]sulfonyl}amino)-5-(hydroxyamino)-5-oxopentyl]benzamide]
3 | 5.13 nM | CC#CCOc1ccc(S(=O)(=O)N[C@H](CCCNC(=O)CCC)C(=O)NO)cc1 [Example 332, (2R)-2-({[4-(But-2-ynyloxy)phenyl]sulfonyl)amino)-5-(butyrylamino)-N-hydroxypentanamide]
4 | 4.21 nM | CC#CCOc1ccc(S(=O)(=O)N[C@H](CCCNC(=O)c2sccc2Cl)C(=O)NO)cc1 [Example 333, N-[(4R)-4-({[4-(But-2-ynyloxy)phenyl]sulfonyl}amino)-5-(hydroxyamino)-5-oxopentyl]-3-chlorothiophene-2-carboxamide]
5 | 4.7 nM | CC#CCOc1ccc(S(=O)(=O)N[C@H](CCCNC(=O)c2ccc(Cl)cc2)C(=O)NO)cc1 [Example 334, N-[(4R)-4-({[4-(But-2-ynyloxy)phenyl]sulfonyl}amino)-5-(hydroxyamino)-5-oxopentyl]-4-chlorobenzamide]
6 | 6.5 nM | CC#CCOc1ccc(S(=O)(=O)N[C@H](CCCNC(=O)C2CCCCC2)C(=O)NO)cc1 [Example 335, N-[(4R)-4-({[4-(But-2-ynyloxy)phenyl]sulfonyl}amino)-5-(hydroxyamino)-5-oxopentyl]cyclohexanecarboxamide]
7 | 3.73 nM | CC#CCOc1ccc(S(=O)(=O)N[C@H](CCCNC(=O)c2c(C)noc2C)C(=O)NO)cc1 [Example 338, N-[(4R)-4-({[4-(But-2-ynyloxy)phenyl]sulfonyl)amino)-5-(hydroxyamino)-5-oxopentyl]-3,5-dimethylisoxazole-4-carboxamide]
8 | 4.6 nM | CC#CCOc1ccc(S(=O)(=O)N[C@H](CCCNC(=O)CCc2ccccc2)C(=O)NO)cc1 [Example 339, (2R)-2-({[4-(But-2-ynyloxy)phenyl]sulfonyl}amino)-N-hydroxy-5-[(3-phenylpropanoyl)amino]pentanamide]
9 | 6.67 nM | CC#CCOc1ccc(S(=O)(=O)N[C@H](CCCNC(=O)c2ccncc2)C(=O)NO)cc1 [Example 340, N-[(4R)-4-({[4-(But-2-ynyloxy)phenyl]sulfonyl}amino)-5-(hydroxyamino)-5-oxopentyl]isonicotinamide]
10 | 4.88 nM | CC#CCOc1ccc(S(=O)(=O)N[C@H](CCCNC(=O)c2cccnc2)C(=O)NO)cc1 [Example 341, N-[(4R)-4-({[4-(But-2-ynyloxy)phenyl]sulfonyl}amino)-5-(hydroxyamino)-5-oxopentyl]nicotinamide]
11 | 4.54 nM | CC#CCOc1ccc(S(=O)(=O)N[C@H](CCCNC(=O)c2ccccc2OC)C(=O)NO)cc1 [Example 342, N-[(4R)-4-({[4-(But-2-ynyloxy)phenyl]sulfonyl}amino)-5-(hydroxyamino)-5-oxopentyl]-2-methoxybenzamide]
12 | 3.54 nM | CC#CCOc1ccc(S(=O)(=O)N[C@H](CCCNC(=O)c2ccc(OC)cc2)C(=O)NO)cc1 [Example 343, N-[(4R)-4-({[4-(But-2-ynyloxy)phenyl]sulfonyl}amino)-5-(hydroxyamino)-5-oxopentyl]-4-methoxybenzamide]
13 | 5.24 nM | CC#CCOc1ccc(S(=O)(=O)N[C@H](CCCNC(=O)Cc2ccc([N+](=O)[O-])cc2)C(=O)NO)cc1 [Example 344, (2R)-2-({[4-(But-2-ynyloxy)phenyl]sulfonyl}amino)-N-hydroxy-5-{[2-(4-nitrophenyl)acetyl]amino}pentanamide]
14 | 4.43 nM | CC#CCOc1ccc(S(=O)(=O)N[C@H](CCCNC(=O)Cc2ccccc2)C(=O)NO)cc1 [Example 345, (2R)-2-({[4-(But-2-ynyloxy)phenyl]sulfonyl}amino)-N-hydroxy-5-[(2-phenylacetyl)amino]pentanamide]
15 | 4.63 nM | CC#CCOc1ccc(S(=O)(=O)N[C@H](CCCNC(=O)c2cnc3ccccc3c2)C(=O)NO)cc1 [Example 346, N-[(4R)-4-({[4-(But-2-ynyloxy)phenyl]sulfonyl}amino)-5-(hydroxyamino)-5-oxopentyl]quinoline-3-carboxamide]
16 | 3.15 nM | CC#CCOc1ccc(S(=O)(=O)N[C@H](CCCNC(=O)c2ccsc2)C(=O)NO)cc1 [Example 347, N-[(4R)-4-({[4-(But-2-ynyloxy)phenyl]sulfonyl}amino)-5-(hydroxyamino)-5-oxopentyl]thiophene-3-carboxamide]
17 | 6.25 nM | CC#CCOc1ccc(S(=O)(=O)N[C@H](CCCNC(=O)/C=C/c2ccccc2)C(=O)NO)cc1 [Example 348, (E)-N-[(4R)-4-({[4-(But-2-ynyloxy)phenyl]sulfonyl}amino)-5-(hydroxyamino)-5-oxopentyl]-3-phenylprop-2-enamide]
18 | 9.41 nM | CC#CCOc1ccc(S(=O)(=O)N[C@H](CCCCNC(=O)c2ccc3[nH]cnc3c2)C(=O)NO)cc1 [Example 349, N-[(5R)-5-({[4-(But-2-ynyloxy)phenyl]sulfunyl}amino)-6-(hydroxyamino)-6-oxohexyl]-1H-benzimidazole-5-carboxamide]
19 | 6.28 nM | CC#CCOc1ccc(S(=O)(=O)N[C@H](CCCCNC(=O)c2ccccc2)C(=O)NO)cc1 [Example 350, N-[(5R)-5-({[4-(But-2-ynyloxy)phenyl]sulfonyl}amino)-6-(hydroxyamino)-6-oxohexyl]benzamide]
20 | 9.57 nM | CC#CCOc1ccc(S(=O)(=O)N[C@H](CCCCNC(=O)c2ccc(Br)cc2)C(=O)NO)cc1 [Example 351, 4-Bromo-N-[(5R)-5-({[4-(but-2-ynyloxy)phenyl]sulfonyl}amino)-6-(hydroxyamino)-6-oxohexyl]benzamide]
21 | 4.96 nM | CC#CCOc1ccc(S(=O)(=O)N[C@H](CCCCNC(=O)c2sccc2Cl)C(=O)NO)cc1 [Example 352, N-[(5R)-5-({[4-(But-2-ynyloxy)phenyl]sulfonyl}amino)-6-(hydroxyamino)-6-oxohexyl]-3-chlorothiophene-2-carboxamide]
22 | 6.1 nM | CC#CCOc1ccc(S(=O)(=O)N[C@H](CCCCNC(=O)c2ccc(Cl)cc2)C(=O)NO)cc1 [Example 353, N-[(5R)-5-({[4-(But-2-ynyloxy)phenyl]sulfonyl}amino)-6-(hydroxyamino)-6-oxohexyl]-4-chlorobenzamide]
23 | 5.89 nM | CC#CCOc1ccc(S(=O)(=O)N[C@H](CCCCNC(=O)C2CCCCC2)C(=O)NO)cc1 [Example 354, N-[(5R)-5-({[4-(But-2-ynyloxy)phenyl]sulfonyl}amino)-6-(hydroxyamino)-6-oxohexyl]cyclohexanecarboxamide]
24 | 12.4 nM | CC#CCOc1ccc(S(=O)(=O)N[C@H](CCCCNC(=O)Cc2ccc(Cl)c(Cl)c2)C(=O)NO)cc1 [Example 355, (2R)-2-({[4-(But-2-ynyloxy)phenyl]sulfonyl}amino)-6-{[2-(3,4-dichlorophenyl)acetyl]amino}-N-hydroxyhexanamide]

Same assay, conditions: read-out: IC 50 nM (In Vitro Inhibition of TACE); Table 15

Row | IC50 | SMILES
25 | 4.2 nM | CC#CCOc1ccc(S(=O)(=O)N[C@H](CCCNC(=O)c2cc(C)oc2C)C(=O)NO)cc1 [Example 337, N-[(4R)-4-({[4-(But-2-ynyloxy)phenyl]sulfonyl}amino)-5-(hydroxyamino)-5-oxopentyl]-2,5-dimethyl-3-furamide]
